Source: paper PMC10883997, “Multiparametric in vitro and in vivo analysis of the safety profile of self-assembling peptides” (Scientific Reports, 2024)
The star is where a group is joined. Biotin = O=C1N[C@H]2[C@H](CS[C@H]2CCCCC(=O)*)N1

Key:
[1] = test system: TK6 human lymphoblastoid cell line; assay: Thymidine kinase gene mutation assay (TK GMA); assay type: cell-based; conditions: TK6 cells, 4 h exposure, negative control 5.4 × 10^–6
Method: (§1) The general guidance from OECD TG 487 and 490 were followed[26],[41]. TK6 cell suspensions were treated with serially diluted SAPs molecules at 37 °C for 4 h, washed and resuspended in fresh medium, and cultured in new flasks for the MN and TK assays. We conducted the MN test and the TK mutation assay 48 h and 72 h later, respectively.
To measure genotoxicity, cells were subcultured at a maximum density of 2.5 × 10^5 cells/mL (at most 20 × 0^6 cells) for 3 additional days to allow phenotypic expression of the TK gene prior to mutant selection. Forty-eight hours after treatment, the cells were prepared for the MN assay. […] At least 2000 intact cells for each treatment were examined, and the cells containing MN were scored. Cells containing one or more micronuclei were recorded as micronucleated cells. […] The MN frequencies between non-treated and treated cells and the concentration–response relationship were statistically analyzed. […]
The cultures were maintained for another 24 h to allow phenotypic expression prior to plating for TK assay to determine the mutant fractions. […] Mutation frequencies (MFs) were finally calculated from cells grown in TFT selection medium or non-selection medium (for 7 days) via the Poisson distribution method. […] Changes in MFs relative to the negative controls (fold-change) were calculated and expressed graphically.

[2] = test system: TK6 human lymphoblastoid cell line; assay: In vitro micronucleus (MN) assay; assay type: cell-based; conditions: 4 h exposure, scored 48 h after exposure, 2000 cells per culture, three independent experiments
Method: as §1
To measure genotoxicity, cells were subcultured at a maximum density of 2.5 × 10^5 cells/mL (at most 20 × 0^6 cells) for 3 additional days to allow phenotypic expression of the TK gene prior to mutant selection. Forty-eight hours after treatment, the cells were prepared for the MN assay. Briefly, a small portion of cell culture from the flask was transferred to a 15 mL tube and centrifuged at 1200 rpm for 5 min at RT. The supernatant was then removed, and the pelleted cells were resuspended in PBS and placed in a cytospin funnel where cells were cytospun for 4 min at 900 rpm on microscope coverslips. A Diff-Quik staining was performed for microscope scoring. At least 2000 intact cells for each treatment were examined, and the cells containing MN were scored. Cells containing one or more micronuclei were recorded as micronucleated cells. […] The MN frequencies between non-treated and treated cells and the concentration–response relationship were statistically analyzed. […]

[3] = test system: female Sprague–Dawley rats; assay: In vivo acute systemic toxicity of SAPs, subcutaneous injection; design: species or system Rattus norvegicus; conditions: for Body weights at the beginning of the experiment (means) / Body weight at the end of the experiment (means): single s.c. injection 10 mL/kg, mean ± SD, n = 5; for Body weights at the beginning of the experiment (means): day 0; for Body weight at the end of the experiment (means): day 5
Method: The general guidance from the ISO10993 to Biological evaluation of medical devices was followed. Animals were housed in plastic cages with free access to drinking water and a pelleted basal diet under controlled conditions of temperature (22 °C ± 3 °C), humidity (50 ± 10%) and light (12/12 h light/dark cycle). Rats were quarantined for the first 7 days and randomly divided into experimental and control groups. All animals were bred and maintained at CIBA (Biomedical Research Center of Aragon; Department of Experimental Surgery). Animal experimentation was approved by the Ethics Committee for Animal Experimentation from the University of Zaragoza (protocol number PI31/22), and all authors complied with the ARRIVE guidelines.SAPs or electrospun mats, empty micro-channels, and HS-filled micro-channels were subcutaneously administered to female Sprague–Dawley rats (Rattus norvegicus) 7 weeks old, non-pregnant, and nulliparous. The concentration of each SAP was: HS: 1%, 68: 3%, 46: 5%, C1: 3%, 65L: 3% and B42: 1%. On the day before administration, the animals were weighed, and the hair of their thoracic back was shaved. On day 1, the different SAPs were administered in one single dose by subcutaneous injection to each rat corresponding to each group. To devices, a skin incision of about 1 cm and subcutaneous dissection were performed under sterile conditions. Then, the products provided were introduced into the subcutaneous space, one piece per animal. Animals were weighed. Animals were euthanized by trained personnel using medical-grade Carbon dioxide (CO2). CO2 inhalation is the most common method of euthanasia used for small animals (i.e., mice, rats, guinea pigs, and hamsters). It is considered an acceptable euthanasia agent for small animals when properly administered. It was accepted by the Ethics Committee for Animal Experimentation from the University of Zaragoza (protocol number PI31/22). For histological assessment, lung, liver, spleen, kidneys, and duodenum were removed from rats, fixed with 4% paraformaldehyde, and embedded in paraffin. Sections from these samples were stained with hematoxylin and eosin (H&E). Blood samples were drawn at the end of the study by cardiac puncture. They were analysed with VetScan V2.
Data are expressed by mean ± standard deviation of the mean. Body weight comparison between groups was assessed using the repeated measures two-way ANOVA test. Bonferroni posthoc multiple comparisons were also used. Analysis of biochemical parameters was made with one-way ANOVA. They were performed using GraphPad Prism 8 (8.0.2).

[4] = test system: Mouse Embryonic Fibroblasts (MEFs); assay: Scratch wound (wound healing) assay, fibroblasts; assay type: cell-based; conditions: MEF fibroblasts, 0.01 mg/mL, IncuCyte scan every 4 h; three independent experiments
Method: Prior to initiating the assay, cells were grown to confluence in a 96-well plate at 37 °C in an atmosphere of 5% CO2 and, with the help of a 96-pin IncuCyte® Wound Maker simultaneously created precise and reproducible wounds in all wells of a 96-well plate by gently removing the cells from the confluent monolayer. After wounding, immediately aspirate the media from each well and wash the cells twice with culture media (100 µL/well). After washing, 100 µL of media containing 0.01 mg/mL of the appropriate agent was added to the corresponding well, and the plate was placed inside the IncuCyte. Assay plates were then equilibrated within the IncuCyte® for a minimum of 15 min before the first scan. The software was set to scan the plate every 4 h for migration assays.

[5] = rat blood at day 5, VetScan V2, one-way ANOVA, within expected reference values

For `CO[C@@]12[C@H](COC(N)=O)C3=C(C(=O)C(C)=C(N)C3=O)N1C[C@@H]1N[C@@H]12` [Mit C, Mitomycin C], the “mutant frequency (MF)” value ([1]; Mit C 8.3 µg/mL (positive control)) was 14.6 × 10^–6, the “mutant frequency (MF)” value ([1]; Mit C 25 µg/mL (positive control)) was 175.3 × 10^–6 and the “percentage of micronucleated cells versus negative control” value [2] was “significant increase”.

For “Ac-FAQRVPPGGG(LDLD)3-CONH2 [compound 68]”, the “Sodium blood test (NA+) compared with the control group” value [3, 5] was “increased”, the “albumin (ALB) levels compared with the control group” value ([3]; rat blood, cardiac puncture at day 5, VetScan V2, one-way ANOVA, all group means incl. control slightly above reference) was “Significant higher” and the “body weight evolution versus control group” value ([3]; rats, s.c. 10 mL/kg, days 0, 2, 5, two-way ANOVA, p = 0.03, no significant change at single time points) was “significantly different”. For the same compound, the “Body weights at the beginning of the experiment (means)” value (“Body weights at the beginning” for short) ([3]; rats) was 238.1 ± 8.05 g and the “Body weight at the end of the experiment (means)” value (from here on “Body weight at the end”) ([3]; rats) was 247.9 ± 7.60 g.

In the case of Biotin-GGGAFASAKA-NH2 [B42], the “Body weights at the beginning” value ([3]; rats) is reported as 243.8 ± 9.10 g and the “Body weight at the end” value ([3]; rats) is reported as 260.8 ± 10.9 g.

FAQRVPPGGG(LDLK)3-CONH2 [compound 46] was tested, and the “globulin blood tests (GLOB) compared with the control group” value [3, 5] was “increased”, the “Body weights at the beginning” value ([3]; rats) was 250.5 ± 9.10 g and the “Body weight at the end” value ([3]; rats) was 265.2 ± 8.20 g. The “cell migration versus control (area under relative wound density % vs time curve)” value [4] was “reduced cell migration”.
